Results: patent US6670400B1, “Phenoxyethylamine derivatives having high affinity for the 5-HT1A receptor, preparation thereof, use thereof as drugs, and pharmaceutical compositions containing said derivatives” (Societe de Conseils de Recherches et D'Applications …, priority 1995, dated 2003)
Where a name gives a salt, the structure may show the parent alone.

Key:
gastric acid secretion = assay: Gastric anti-secretion activity, pylorus-ligated rat (Shay method); type: in vivo; details: intraduodenal, male Sprague Dawley rats, pylorus ligature, 4 hours
Description: The gastric anti-secretion activity of the compounds of the invention was tested according to the method described by Shay et al. (H. Shay, D. C. Sun, M. Gruenstein, Gastroenterology, 26, 906 [1954]). Thus, male Sprague Dawley rats weighing around 200 g with free access to water are made to fast 24 hours before the experiments. Ligatures are made on the pylora under ether anesthesia and the medications to be tested are simultaneously administered either by the intraperitoneal route (i.p.) or by intraduodenal route (i.d.). The abdomen is closed again and the animals are sacrificed after four hours. The gastric secretion is recovered and centrifuged at 1,500 g for 15 minutes; the volume of the supernatant is measured and the acidity is determined by automatic titration of 0.05 N sodium hydroxide. A control group is included for each experiment.
The dose necessery for 50% inhibition (ED50) of the acid secretion (X concentration of hydrochloric acid by volume) is calculated using the method described by Litchfield and Wilcoxon (J. T. Litchfield, F. A. Wilcoxon, J. Pharmacol., 96, 99 [1949]). The results obtained for compounds pounds representative of the invention are given in Table 3 and compared with the clinically used reference compounds: Pirenzepine (anti-cholinergic), Ranitidine (antagonist of histaminergic H2 receptors) and Omeprazole (proton pump inhibitor).

5-HT1A receptor = target: T1, 5-HT1A receptor (Rattus norvegicus, UniProt P19327); assay: Affinity for the 5-HT1A receptor: inhibition of [3H]8-OH-DPAT binding to rat cerebral cortex membranes; details: [3H]8-OH-DPAT 1 nM, 30 min at 25 deg. C.
T1 construct: Rat cerebral cortex membranes (10 mg by weight, moistened, per ml) are incubated with [3H]8-OH-DPAT (1 nM); from tissue; host or cells: rat cerebral cortex membranes (male Sprague Dawley rats)
T1 sequence (P19327 1-422): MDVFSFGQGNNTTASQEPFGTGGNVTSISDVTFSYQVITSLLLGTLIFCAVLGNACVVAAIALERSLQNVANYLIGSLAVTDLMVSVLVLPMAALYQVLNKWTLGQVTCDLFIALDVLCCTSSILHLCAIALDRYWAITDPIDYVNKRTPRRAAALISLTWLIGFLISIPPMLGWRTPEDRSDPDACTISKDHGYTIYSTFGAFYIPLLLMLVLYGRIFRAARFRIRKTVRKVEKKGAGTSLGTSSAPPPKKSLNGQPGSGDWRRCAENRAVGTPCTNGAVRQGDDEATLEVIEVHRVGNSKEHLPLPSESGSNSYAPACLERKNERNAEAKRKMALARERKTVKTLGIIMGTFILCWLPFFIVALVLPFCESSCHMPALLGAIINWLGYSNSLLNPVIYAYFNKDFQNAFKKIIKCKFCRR
Description: The affinity of the compounds for the 5-HT1A serotonergic receptors is determined by measuring the inhibition of [3H]8-hydroxy-2 (di-n-propylamino) tetralin([3H]8-OH-DPAT) connected with the cerebral cortex of the rat according to the method of Perutka et al. (J. Neurochem., 47,529 [1986]).
Cerebral cortices of male Sprague Dawley rats are homogenized in 50 mM Tris-HCl, pH—7.4, and centrifuged at 40,000 g for 10 min. at 4 degrees C. Pellets are put into suspension in the same buffer and incubated for 10 min. at 37 degrees C. and the homogenates are again centrifuged at 40,000 g for 10 min. at 4 degrees C.
Competitive inhibition tests of the bond of [3H]8-OH-DAPT are performed three times with unmarked competitors with concentrations ranging between 100 pM and 100 μM. Rat cerebral cortex membranes (10 mg by weight, moistened, per ml) are incubated with [3H]8-OH-DPAT (1 nM) for 30 min. at 25 deg. C. in Tris-HCl 50 mM, pH 7.4 comprising 4 mM of CaCl2, 10 μM of pargylin and 0.1% ascorbic acid.
The bonded [3H]8-OH-DPAT is separated from the free [3H]8-OH-DPAT by immediate filtration by means of Whatman GF/B fiberglass filters using a Brandel cell recoverer. The filters [filtrates?] are washed three times with the same buffer at 0-4 deg. C. and their radioactivity is determined by means of a liquid scintillation spectrometer.
The specific bond is obtained by subtracting the given bond in the presence of 1 μM of 8-OH-DPAT from the total bond. The bond characteristics are analyzed by interactive analysis of the nonlinear regression by computer using the Ligand program (Munson and Rodbard, Anal. Biochem., 107, 220 [1980]).

[1] = tested on: vomiting induced by cis-platinum; assay: Anti-emetic activity: inhibition of vomiting induced by cis-platinum in ferrets; type: in vivo, ferret; details: 30 minutes before cis-platinum 30 mg/kg i.v., ferrets observed six hours
Description: Inhibition induced by cis-platinum is evaluated in ferrets using a modification of the protocol described by Barnes et al. (J. M. Barnes, N. M. Barnes, B. Costall, R. J. Naylor, F. D. Tattersall, Neuropharmacology, 27[8], 783 [1988]). Thus, albino ferrets or European polecats of both sexes weighing between 0.5 kg and 1.5 kg are put under anesthesia with pentobarbitone (30-40 mg/kg i.p.) and a polyethylene injection tube is inserted into the left jugular vein. Two days later, the compounds being tested are administered i.v. 30 minutes before cis-platinum (30 mg/kg i.v.). The animals are observed for six hours and the number of vomitings is recorded. A control group is included for each experiment.

intestinal transit = assay: Effect on intestinal transit (charcoal meal) in rats; type: in vivo, rat; details: 30 minutes before charcoal, sacrificed after 15 minutes
Description: A compound of the invention was tested to determine its effect on the intestinal transit according to the method described by A. F. Green (Br. J. Pharmacol., 14, 26-34 [1959]). To male Sprague Dawley rats weighing approximately 200 g before being made to fast, there was administered (p.o.) a meal comprised of charcoal (10 g) and gum arabic (2.5 g) dissolved in 100 ml of distilled water. The animals were sacrificed after 15 minutes and the charcoal transit time was measured.
The product to be tested was administered (s.c.) 30 minutes before the administration of the charcoal.

gastric emptying = assay: Effect on gastric emptying (phenol red meal) in rats; type: in vivo, rat; details: sacrificed 15 minutes after phenol red meal
Description: A compound of the invention was tested for its effect on gastric emptying according to the method described by C. Scarpignato et al. (Arch. Int. Pharmacodyn., 246, 286-294 [1980]). Thus, 1.5 ml of a 1.5% methyl cellulose solution comprising phenol red (0.5 mg/ml) was administered orally to Sprague Dawley rats weighing approximately 200 g and previously subjected to fasting. The animals were sacrificed after 15 minutes and the pylora and the esophagi were tied off. The contents of the stomachs were collected in a teflon beaker containing a solution of soda (100 ml at 0.1 N) and the mixture was homogenized. The proteins were precipitated by addition of 0.5 ml of a 20% aqueous solution of trifluoroacetic acid to a 5 ml portion of homogenate. After centrifuging, the part of the solution rising to the top was separated and added to 4.5 ml of an aqueous solution of soda at 0.5 N and the phenol red content was determined by using a spectrophotometer at a wavelength of 560 nm.
The compound to be tested was administered (s.c.) 15 minutes […] the administration of phenol red.

Ki (5-HT1A receptor) [nM]	melting point [°C]	Structure (SMILES)	also measured
		CN1CCN(CC(=O)N2c3ccccc3C(=O)Nc3cccnc32)CC1 [Pirenzepine, reference compound]	ED50 (dose necessary for 50% inhibition of the acid secretion) (gastric acid secretion): 14 mg/kg i.d.
0.1		COc1ccccc1OCCNCCCCNC(=O)C12CC3CC(CC(C3)C1)C2 [Compound No. 2, N-[4-{-2-(2-Methoxyphenoxy)ethyl}aminobutyl]-1-adamantamide]	ED50 (dose necessary for 50% inhibition of the acid secretion) (gastric acid secretion): 3.6 mg/kg i.d.
		COc1ccc2[nH]c([S+]([O-])Cc3ncc(C)c(OC)c3C)nc2c1 (stereo not drawn) [Omeprazole, reference compound]	ED50 (dose necessary for 50% inhibition of the acid secretion) (gastric acid secretion): 4.6 mg/kg i.d.
	118 to 119	COc1ccccc1OCCNCCCCNC(=O)CC1CCCC1 (as salt: fumarate) [compound 59]	
0.44		COc1ccccc1OCCNCCCCNC(=O)c1cccc(I)c1 [compound 30]	
0.094		COc1ccccc1OCCNCCCCNC(=O)C1CCCCCC1 [compound 46, N[4-{2-(2-methoxyphenoxy)ethyl}aminobutyl]cycloheptylamide]	
0.71		CSc1ccccc1OCCNCCCCNC(=O)c1ccccc1 [compound 11]	
0.33		COc1ccccc1OCCNCCCCNC(=O)CC(C)(C)C [compound 33]	
0.23		O=C(NCCCCNCCOc1ccccc1O)c1ccccc1 [compound 20, N[4-{2-(2-hydroxyphenoxy)ethyl}aminobutyl]benzamide]	ED50 (dose necessary for 50% inhibition of the acid secretion) (gastric acid secretion): 3.1 mg/kg i.d.
0.087		COc1ccccc1OCCNCCCCNC(=O)C1CCCCC1 [compound 34, N[4-{2-(2-methoxyphenoxy)ethyl}aminobutyl]cyclohexylamide]	
	120 to 122	COc1ccccc1OCCNCCCCNC(=O)C1(C)CCCCC1 (as salt: fumarate) [compound 45]	
1.4		COc1ccccc1OCCNCCCCNC(=O)c1ccccn1 [compound 3]	
		CCN(CC)CCNC(=O)c1cc(Cl)c(N)cc1OC [Metoclopramide, reference compound]	Percent Inhibition (vomiting) ([1]; 1.0 mg/kg iv): 15%
0.14		COc1ccccc1OCCNCCCCNC(=O)C1(C)CCCCC1 [compound 45]	
0.65		COc1ccccc1OCCNCCCCNC(=O)CC1CCCC1 [compound 59]	
0.77		CCOc1ccccc1OCCNCCCCNC(=O)C(C)(C)C [compound 64]	

Ki (5-HT1A receptor) [nM]	melting point [°C]	Structure (SMILES)	also measured
1.6		COc1cccc(C(=O)NCCCCNCCOc2ccccc2OC)c1 [compound 14]	
	152 to 154	COc1ccccc1OCCNCCCCNC(=O)c1ccccn1 (as salt: salt) [compound 3]	
	134 to 136	COc1ccccc1OCCNCCCCNC(=O)C1CCCCC1 (as salt: fumarate) [compound 34, N[4-{2-(2-methoxyphenoxy)ethyl}aminobutyl]cyclohexylamide]	
0.071		COc1ccccc1OCCNCCCCNC(=O)C1CC2CCC1C2 (stereo not drawn) [compound 50, N[4-{2-(2-methoxyphenoxy)ethyl}aminobutyl]2-bicyclo[2,2,1]heptylamide]	
	130 to 131	COc1ccccc1OCCNCCCCNC(=O)C1CC2CCC1C2 (stereo not drawn) (as salt: fumarate) [compound 50, N[4-{2-(2-methoxyphenoxy)ethyl}aminobutyl]2-bicyclo[2,2,1]heptylamide]	
	131.5 to 133	CCOc1ccccc1OCCNCCCCNC(=O)C(C)(C)C (as salt: fumarate) [compound 64]	
	68 to 70	COc1cccc(C(=O)NCCCCNCCOc2ccccc2OC)c1 (as salt: fumarate) [compound 14]	
		Cc1nccn1CC1CCc2c(c3ccccc3n2C)C1=O (stereo not drawn) [Ondansetron, reference compound]	Percent Inhibition (vomiting) ([1]; 0.5 mg/kg iv): 62%
	119 to 120.5	COc1ccccc1OCCNCCCCNC(=O)c1ccc(F)cc1 (as salt: salt) [compound 23]	
		CNC(=C[N+](=O)[O-])NCCSCc1ccc(CN(C)C)o1 [Ranitidine, reference compound]	ED50 (dose necessary for 50% inhibition of the acid secretion) (gastric acid secretion): 22 mg/kg i.d.
	125 to 126	COc1ccccc1OCCNCCCCNC(=O)C1CCCCCC1 (as salt: fumarate) [compound 46, N[4-{2-(2-methoxyphenoxy)ethyl}aminobutyl]cycloheptylamide]	
	130 to 132	COc1ccccc1OCCNCCCCNC(=O)CC(C)(C)C (as salt: fumarate) [compound 33]	
0.2		COc1ccccc1OCCNCCCCNC(=O)c1ccccc1 [Compound No. 1, N-[4-{2-(2-Methoxyphenoxy)ethyl}aminobutyl]benzamide]	ED50 (dose necessary for 50% inhibition of the acid secretion) (gastric acid secretion): 3.7 mg/kg i.d.; Percent Inhibition (vomiting) ([1]; 1.0 mg/kg iv): 40%
		CNC(=O)c1ccccc1OCCNCCCCNC(=O)c1ccccc1 [Compound No. 18]	ED50 (dose necessary for 50% inhibition of the acid secretion) (gastric acid secretion): 3.2 mg/kg i.d.; Percent Inhibition (vomiting) ([1]; 1.0 mg/kg iv): 62%; Charcoal Transit Time Compared to Control (intestinal transit; 0.3 mg/kg s.c.): +16%; Charcoal Transit Time Compared to Control (intestinal transit; 1.0 mg/kg s.c.): +20%; Effect on Gastric Emptying Time Compared to Control (gastric emptying; 0.3 mg/kg s.c.): +8%; Effect on Gastric Emptying Time Compared to Control (gastric emptying; 1.0 mg/kg s.c.): +18%; Effect on Gastric Emptying Time Compared to Control (gastric emptying; 3.0 mg/kg s.c.): +26%
0.33		COc1ccccc1OCCNCCCCNC(=O)c1ccc(F)cc1 [compound 23]	
	121 to 121.5	COc1ccccc1OCCNCCCCNC(=O)c1cccc(I)c1 (as salt: salt) [compound 30]	
